Counter-ions that a name gives are not always drawn.
These compounds were tested on ATGL-KO iPSCs (assay: High throughput iPSC chemical screening, Oil Red O (ORO) lipid accumulation). Settings: not given.
Format: cell-based, mouse
In the case of `Cc1c(C)c2c(c(C)c1O)CC[C@@](C)(CCC[C@H](C)CCC[C@H](C)CCCC(C)C)O2` [Tocopherol (R,S)], the Z-score is reported as −1.721.
`CN[C@H](CC(C)C)C(=O)N[C@H]1C(=O)N[C@@H](CC(N)=O)C(=O)N[C@H]2C(=O)N[C@H]3C(=O)N[C@H](C(=O)N[C@H](C(=O)O)c4cc(O)cc(O)c4-c4cc3ccc4O)[C@H](O)c3ccc(c(Cl)c3)Oc3cc2cc(c3O[C@@H]2O[C@H](CO)[C@@H](O)[C@H](O)[C@H]2O[C@H]2C[C@](C)(N)[C@H](O)[C@H](C)O2)Oc2ccc(cc2Cl)[C@H]1O` [Vancomycin hydrochloride] gave a Z-score of −0.5906.

Same assay, conditions: glycolytic switch compounds
With `CN(C)CCCN1c2ccccc2Sc2ccc(C(F)(F)F)cc21` [Triflupromazine hydrochloride] the “Rank in normalized ORO score from screen” value was 644.

Same assay, conditions: normalized ORO level vs DMSO-treated cells; compound present during 7 days differentiation, 96-well; negative = decrease in lipid accumulation
In the case of `C=C(NC(=O)C(=C)NC(=O)c1csc(C2=N[C@@H]3c4csc(n4)[C@H]4NC(=O)c5csc(n5)[C@H]([C@](C)(O)[C@@H](C)O)NC(=O)[C@H]5CSC(=N5)/C(=C/C)NC(=O)[C@H]([C@@H](C)O)NC(=O)c5csc(n5)[C@]3(CC2)NC(=O)[C@H](C)NC(=O)C(=C)NC(=O)[C@H](C)NC(=O)[C@H]([C@@H](C)CC)N[C@@H]2C=Cc3c([C@H](C)O)cc(nc3[C@H]2O)C(=O)O[C@@H]4C)n1)C(N)=O` [Thiostrepton], the Z-score is reported as 13.9158.
With `CCCCCCCCCCCCCCCC[N+](C)(C)CCN(Cc1ccc(OC)cc1)c1ncccn1` [Thonzonium bromide] the Z-score was 2.814.
`N[C@@H](Cc1cc(I)c(Oc2cc(I)c(O)c(I)c2)c(I)c1)C(=O)O` [Thyroxine (L)] was tested, and the Z-score was 0.1955.
Compound `c1ccc2[nH]c(-c3cscn3)nc2c1` [Tiabendazole] has a Z-score of −0.3752.
`CCN(CC)CCNC(=O)c1cc(S(C)(=O)=O)ccc1OC` [Tiapride hydrochloride] was tested, and the Z-score was −1.0178.
`CC(C(=O)O)c1ccc(C(=O)c2ccccc2)s1` (stereo not shown) [Tiaprofenic acid] gave a Z-score of −0.6271.
`CC1(C)S[C@@H]2[C@H](NC(=O)[C@H](C(=O)O)c3ccsc3)C(=O)N2[C@H]1C(=O)O` [Ticarcillin sodium] was tested, and the Z-score was −0.1446.
Compound `Clc1ccccc1CN1CCc2sccc2C1` [Ticlopidine hydrochloride] has a Z-score of −1.0702.
`CCNC1(c2cccs2)CCCCC1=O.Cl` (stereo not shown) [Tiletamine hydrochloride] showed a Z-score of 1.2858.
In the case of `CCS(=O)(=O)CCn1c([N+](=O)[O-])cnc1C` [Tinidazole], the Z-score is reported as −0.3977.
In the case of `NC[C@H]1O[C@H](O[C@H]2[C@H](O)[C@@H](O[C@H]3O[C@H](CO)[C@@H](O)[C@H](N)[C@H]3O)[C@H](N)C[C@@H]2N)[C@H](N)C[C@@H]1O` [Tobramycin], the Z-score is reported as 1.694.
In the case of `Cc1cccc(C)c1NC(=O)C(C)N` (stereo not shown) [Tocainide hydrochloride], the Z-score is reported as 0.6038.
In the case of `Cc1ccc(S(=O)(=O)NC(=O)NN2CCCCCC2)cc1` [Tolazamide], the Z-score is reported as 1.554.
For `c1ccc(CC2=NCCN2)cc1` [Tolazoline hydrochloride], the Z-score was 0.3256.
Work on `CCCCNC(=O)NS(=O)(=O)c1ccc(C)cc1` [Tolbutamide] yielded a Z-score of −0.8086.
Work on `Cc1c(Cl)cccc1Nc1ccccc1C(=O)O` [Tolfenamic acid] yielded a Z-score of −0.8256.
For `Cc1ccc(C(=O)c2ccc(CC(=O)O)n2C)cc1` [Tolmetin sodium salt dihydrate], the Z-score was −1.0425.
For `Cc1cccc(N(C)C(=S)Oc2ccc3ccccc3c2)c1` [Tolnaftate], the Z-score was 0.2441.
`C[C@H]1CC[C@]2(NC1)O[C@H]1C[C@H]3[C@@H]4CC[C@H]5C[C@@H](O)CC[C@]5(C)[C@H]4CC[C@]3(C)[C@H]1[C@@H]2C` [Tomatidine] gave a Z-score of −0.7378.
With `C[C@H]1CC[C@]2(NC1)O[C@H]1C[C@H]3[C@@H]4CC[C@H]5C[C@@H](O[C@@H]6O[C@H](CO)[C@H](O[C@@H]7O[C@H](CO)[C@@H](O)[C@H](O[C@@H]8OC[C@@H](O)[C@H](O)[C@H]8O)[C@H]7O[C@@H]7O[C@H](CO)[C@@H](O)[C@H](O)[C@H]7O)[C@H](O)[C@H]6O)CC[C@]5(C)[C@H]4CC[C@]3(C)[C@H]1[C@@H]2C` [Tomatine, reference compound] the Z-score was −2.0901.
In the case of `Cc1cccc(Nc2ccncc2S(=O)(=O)NC(=O)NC(C)C)c1` [Torsemide], the Z-score is reported as 0.1541.
With `CCCCNc1c(C(=O)OCC)c(C)nc2c1cnn2CC` [Tracazolate hydrochloride] the Z-score was −1.6368.
`NC[C@H]1CC[C@H](C(=O)O)CC1` [Tranexamic acid] showed a Z-score of 0.05824.
With `N[C@@H]1C[C@H]1c1ccccc1` [Tranylcypromine hydrochloride] the Z-score was −0.2314.
`O=c1n(CCCN2CCN(c3cccc(Cl)c3)CC2)nc2ccccn12` [Trazodone hydrochloride] gave a Z-score of 0.03974.
For `C(#CCN1CCCC1)CN1CCCC1.Cl.Cl` [Tremorine dihydrochloride], the Z-score was 0.3583.
In the case of `C[C@]12C=CC(=O)C=C1CC[C@H]1[C@@H]3C[C@@H](O)[C@](O)(C(=O)CO)[C@@]3(C)C[C@H](O)[C@@]12F` [Triamcinolone], the Z-score is reported as −1.1722.
With `Nc1nc(N)c2nc(-c3ccccc3)c(N)nc2n1` [Triamterene] the Z-score was −1.3039.
Work on `CCOC1O[C@H]([C@@H](COCc2ccccc2)OCc2ccccc2)[C@H](OCc2ccccc2)[C@H]1O` (stereo partly shown) [Tribenoside] yielded a Z-score of −0.7171.
With `COP(=O)(OC)C(O)C(Cl)(Cl)Cl` (stereo not shown) [Trichlorfon] the Z-score was 0.2655.
`NS(=O)(=O)c1cc2c(cc1Cl)NC(C(Cl)Cl)NS2(=O)=O` (stereo not shown) [Trichlormethiazide] gave a Z-score of −1.2081.
For `CC[N+](CC)(CC)CCC(O)(c1ccccc1)C1CCCCC1.[Cl-]` (stereo not shown) [Tridihexethyl chloride], the Z-score was 0.01977.
In the case of `CN1CCN(CCCN2c3ccccc3Sc3ccc(C(F)(F)F)cc32)CC1` [Trifluoperazine dihydrochloride], the Z-score is reported as 0.5386.
`CN(C)CCCN1c2ccccc2Sc2ccc(C(F)(F)F)cc21` [Triflupromazine hydrochloride] was tested, and the Z-score was 0.04449.
`O=c1[nH]c(=O)n([C@H]2C[C@H](O)[C@@H](CO)O2)cc1C(F)(F)F` [Trifluridine] showed a Z-score of 21.7513.
Work on `CC(=O)Oc1cc(C(F)(F)F)ccc1C(=O)O` [Triflusal] yielded a Z-score of −1.2041.
`C[n+]1cccc(C(=O)[O-])c1` [Trigonelline] was tested, and the Z-score was −1.518.
`Cl.OC(CCN1CCCCC1)(c1ccccc1)C1CCCCC1` (stereo not shown) [Trihexyphenidyl-D,L Hydrochloride] showed a Z-score of 1.258.
`COc1ccc(CN2CCNCC2)c(OC)c1OC` [Trimetazidine dihydrochloride] was tested, and the Z-score was 0.9654.
Compound `CN1C(=O)OC(C)(C)C1=O` [Trimethadione] has a Z-score of −0.8958.
With `COc1cc(C(=O)NCc2ccc(OCCN(C)C)cc2)cc(OC)c1OC` [Trimethobenzamide hydrochloride] the Z-score was 1.06.
With `COc1cc(Cc2cnc(N)nc2N)cc(OC)c1OC` [Trimethoprim] the Z-score was −0.9568.
Work on `COc1cc2c(c(OC)c1OC)-c1ccc(O)c(=O)cc1C(N)CC2` (stereo not shown) [Trimethylcolchicinic acid] yielded a Z-score of 0.4127.
For `Cc1cc2cc3c(C)cc(=O)oc3c(C)c2o1` [Trioxsalen], the Z-score was 1.359.
With `Cc1ccc(/C(=C\CN2CCCC2)c2ccccn2)cc1` [Triprolidine hydrochloride] the Z-score was −1.0644.
Compound `CO[C@H]1C[C@H](O[C@H]2[C@H](C)[C@@H](O[C@@H]3O[C@H](C)C[C@H](N(C)C)[C@H]3OC(C)=O)[C@@H](C)C[C@@]3(CO3)C(=O)[C@H](C)[C@@H](OC(C)=O)[C@@H](C)[C@@H](C)OC(=O)[C@@H]2C)O[C@@H](C)[C@@H]1OC(C)=O` [Troleandomycin] has a Z-score of −0.5429.
In the case of `Cc1c(C)c2c(c(C)c1O)CCC(C)(C(=O)O)O2` (stereo not shown) [Trolox], the Z-score is reported as −1.1986.
`CN1[C@@H]2CC[C@H]1C[C@@H](O)C2` [Tropine] showed a Z-score of −0.2952.
In the case of `COc1cc2c3cc1Oc1cc(ccc1O)C[C@@H]1c4c(cc(OC)c(O)c4Oc4ccc(cc4)C[C@@H]3N(C)CC2)CC[N+]1(C)C.Cl.O.O.O.O.O.[Cl-]` [Tubocurarine chloride pentahydrate (+)], the Z-score is reported as 0.8961.
`CO[C@@H]1C=C2CCN(C)[C@@H]2C2c3cc4c(cc3C(=O)OC21)OCO4.O=[N+]([O-])O` (stereo partly shown) [Ungerine nitrate] showed a Z-score of −1.1174.
For `COc1ccccc1N1CCN(CCCNc2cc(=O)n(C)c(=O)n2C)CC1` [Urapidil hydrochloride], the Z-score was −1.2828.
For `C[C@H](CCC(=O)O)[C@H]1CC[C@H]2[C@@H]3[C@@H](O)C[C@@H]4C[C@H](O)CC[C@]4(C)[C@H]3CC[C@]12C` [Urosiol], the Z-score was 0.02187.
`C[C@H]1[C@H](C)CC[C@]2(C(=O)O)CC[C@]3(C)C(=CC[C@@H]4[C@@]5(C)CC[C@H](O)C(C)(C)[C@@H]5CC[C@]43C)[C@H]12` [Ursolic acid] gave a Z-score of −0.1541.
Compound `COc1ccc(CCN(C)CCCC(C#N)(c2ccc(OC)c(OC)c2)C(C)C)cc1OC.Cl` (stereo not shown) [Verapamyl hydrochloride] has a Z-score of 0.4436.
`Nc1ncnc2c1ncn2[C@@H]1O[C@H](CO)[C@@H](O)[C@@H]1O` [Vidarabine] gave a Z-score of −0.443.
With `C=CC(N)CCC(=O)O` (stereo not shown) [Vigabatrin] the Z-score was −0.7771.
Compound `CC[C@]12CCCN3CCc4c(n(c5ccccc45)[C@@](O)(C(=O)OC)C1)[C@@H]32` [Vincamine] has a Z-score of −0.4826.
In the case of `O=c1cc(-c2ccc(O)cc2)oc2c([C@@H]3O[C@H](CO)[C@@H](O)[C@H](O)[C@H]3O)c(O)cc(O)c12` [Vitexin], the Z-score is reported as −0.0089.
`O=C(NCCNCC(O)COc1ccc(O)cc1)N1CCOCC1` (stereo not shown) [Xamoterol hemifumarate] was tested, and the Z-score was −0.1402.
Compound `Cc1cccc(C)c1N=C1NCCCS1` [Xylazine] has a Z-score of −1.0585.
In the case of `Cc1cc(C(C)(C)C)cc(C)c1CC1=NCCN1` [Xylometazoline hydrochloride], the Z-score is reported as 0.7686.
`COC(=O)[C@@H]1[C@H]2C[C@H]3c4[nH]c5ccccc5c4CCN3C[C@@H]2CC[C@@H]1O` [Yohimbine hydrochloride] gave a Z-score of −1.0356.
For `O.O=C(O)[C@@H]1[C@H]2C[C@H]3c4[nH]c5ccccc5c4CCN3C[C@@H]2CC[C@@H]1O` [Yohimbinic acid monohydrate], the Z-score was −0.0239.
Compound `Nc1ccn([C@H]2CC[C@@H](CO)O2)c(=O)n1` [Zalcitabine] has a Z-score of 2.323.
Work on `CCCOc1ccccc1-c1nc2nn[nH]c2c(=O)[nH]1` [Zaprinast] yielded a Z-score of −0.4842.
With `COc1cc(-c2ccc(=O)[nH]n2)ccc1OC(F)F` [Zardaverine] the Z-score was −0.6963.
Work on `Cc1cn([C@H]2C[C@H](N=[N+]=[N-])[C@@H](CO)O2)c(=O)[nH]c1=O` [Zidovudine, AZT] yielded a Z-score of −0.4063.
Throughout, for Z-score: test concentration or dose not given here.
